This is an account of results in patent publication US5756450A, “Water soluble monoesters as solubilisers for pharmacologically active compounds and pharmaceutical excipients and novel cyclosporin galenic forms” (Novartis Corporation, priority 1987, dated 1998).

The nature of series [1]: Solubilisation in aqueous 10% saccharose monolaurate L-1695 solution (Example 12). As to conditions: aqueous solution of saccharose monolaurate L-1695, 10% by weight. The class given is physicochemical. The text has this: A solid solution is obtained by removing the water by freeze drying.
Series [2] is described as follows: Water solubility of the active compound. The class given is physicochemical.

Turning to `CC(=O)[C@H]1CC[C@H]2[C@@H]3CCC4=CC(=O)CC[C@]4(C)[C@H]3CC[C@]12C` [Progesterone], the “amount that can be solubilised per ml” value in series [1] was 3 mg per ml. `Cc1ccc2c(-c3ccccc3)nc(=O)n(C(C)C)c2c1` [Proquazone, 1-isopropyl-7-methyl-4-phenyl-2(1H)-quinazolinone]: in series [2], the water solubility result is “below 0.1 g/100 ml”. Besides, in series [1], the “amount that can be solubilised per ml” value worked out at 3 mg per ml.
